Tests used:
L. major promastigotes = assay: L. major promastigote drug treatment, parasite survival after 48 h; type: cell-based
Experimental: The effect of PZA was first investigated with promastigotes of L. major. PZA was diluted in medium and added to cultures. After 48 h, parasite multiplication was determined by counting parasites in culture. […] Incubation of L. major with 1 μg/ml amphotericin B (as a positive control) caused 100% mortality of promastigotes and 90% of amastigotes.
Mid-log phase (day 3 of culture) L. major promastigotes were employed. Parasite concentration was adjusted to 10^6 promastigotes/ml and seeded into 96-well plates in a volume of 100 μl (final concentration, 10^5 promastigotes/well). PZA was tested in triplicate in a concentration gradient from 1,000-0.5 μg/ml and added to the wells containing the parasite in a volume of 100 μl. A negative control was included with three wells containing only parasites and medium. The positive control consisted of amphotericin B (1 μg/ml). This concentration was previously employed by us because this concentration is equivalent to drug concentrations achieved in human plasma. After 48 h of incubation at 26° C., 10 μL of each well was diluted in 90 μL of the vital colorant (trypan blue in PBS) and the parasites were quantified in a Neubauer chamber. Data was normalized as percentage of survival compared to untreated controls. The Lethal Dose 50 (LD50) was extrapolated from the graph as the concentration of the products that inhibited the parasitic growth at 50% of the values of the negative control.

L. major amastigotes = L. major amastigotes within J774 cells, parasite survival; type: cell-based
Experimental: To distinguish between leishmaniostatic and leishmanicidal effects, a time course survival curve was generated for J774 cultures infected with L. major.
Amastigotes were generated by infecting J774 murine macrophages. Infections were carried after seeding cells in 8-well Labtek chambers (Thermo Physic Scientific, Rochester N.Y.) at a concentration of 5×10^4 cells/well. To avoid multiplication, cells were incubated with mitomycin C at a concentration of 0.8 μg/ml for 16 h. Infective-stage promastigotes (metacyclics) of L. major were isolated from stationary cultures (4-5 day-old) by Ficoll enrichment, added to macrophage cultures (5 promastigotes: 1 cell) and kept overnight at 37° C. in the presence of 5% CO2 and DMEM with 10% FCS. Sixteen hours later, non-internalized promastigotes were then washed and replaced by culture medium containing the drug. Forty-eight hours later, wells were detached from the slides, stained with Diff-Quick (Dade Behring, Newark, Del.) and counted under light microscope. Parasite burden was determined by observation under light microscopy (1000×) as the number of amastigotes per one hundred J774 cells. Percentage of survival of amastigotes and MIC50 were calculated as above.

uninfected J774 cells = type: cell-based
Experimental: The potential cytotoxicity of PZA toward the mammalian cell line was determined by co-incubation of PZA with uninfected J774 cells for 48 h (10^4 cells/well) in 96-well culture plates. […] At 200 μg/ml, the compound started to show signs of toxicity, resulting in mortality of 25% of the cell monolayer. […] The control drug amphotericin B caused 5% mortality of the cell monolayer at the concentration tested (1 μg/ml).
J774 cell viability following incubation with PZA was also determined. Cells were seeded onto 8-well Labtek chambers as above and incubated with different concentrations of PZA (up to 1 mg/ml) for 48 h, stained with Diff-Quick and counted under light microscope. The percentage of viable cells was determined after quantifying the number of cells present per field (in 25 fields, ca. 500 cells). Percentage of survival and MIC50 were calculated as above.

J774 cells = assay: Cytokine (ELISA) and nitric oxide (Griess test) production in J774 cells; type: cell-based, murine; conditions: amphotericin B at the doses tested (0.1-1 μg/ml)
Experimental: The ability of J774 cells to produce cytokines in response to infection and/or treatment was also determined. Cells were infected, treated or activated as described above. The amount of the proinflammatory cytokines IL-12 and TNF-α (implicated in Thl response and parasite killing), as well as the repressive cytokine IL-10, was determined by ELISA in the culture supernatants. The level of nitric oxide was also determined in the same supernatants. PZA treatment alone increased cytokine production, especially IL-12 and TNF-α and NO release. […] Finally, to test the specificity of the immune activation by PZA, we determined the effect that amphotericin B treatment had on activation and cytokine expression by J774 cells.
J774 cells or bone marrow-derived cells were seeded onto 24-well plates at a concentration of 5×10^5 cells/ml. Twenty-four hours later, PZA was added to the wells at different concentrations in the absence or presence of L. major (1:5 parasite ratio). In some experiments, J774 cells were treated with amphotericin B (0.1, 0.5, or 1 μg/ml). Two control groups were also included in this experiment: a positive control of activation consisting in a group of uninfected cells treated with 100 ng/ml LPS and 10 IU IFN-γ as a positive control of activation, and a negative control of activation, consisting in uninfected, untreated cells. Cell cultures were maintained overnight, and then cultured for an additional 6 h with brefeldin A (10 μg/ml), harvested by scraping and fixed in 2% paraformaldehyde. Prior to staining, cells were incubated with an anti-Fc III/II receptor and 10% normal mouse serum (NMS) in PBS containing 0.1% BSA, 0.01% NaN3. Cells were permeabilized with saponin and stained for the surface markers CD80 (clone 16-10A1), CD86 (clone GL1), MHCI (clone 28-14-8), MHCII (clone M5/114.15.2) and for the cytokines IL-12p40/p70 (clone C17.8) and IL-10 (clone JESS-16E3). Incubations were carried out for 30 min on ice. All antibodies were purchased from BD Biosciences or eBioscience. For each sample, at least 50,000 cells were analyzed. The data were collected and analyzed using CELLQuest software and a FACScalibur flow cytometer (Becton Dickinson, San Jose, Calif.).

| SMILES | mortality of promastigotes (L. major promastigotes; 1 μg/ml amphotericin B) [%] | percentage of survival compared to untreated control (L. major promastigotes; promastigote, Amphotericin B 1 μg/ml, 48 h) [%] | mortality of amastigotes (L. major amastigotes; 1 μg/ml amphotericin B) [%] | percentage of survival compared to untreated control (L. major amastigotes; amastigote in J774, Amphotericin B 1 μg/ml, 48 h) [%] | elimination of parasites from macrophage cultures (L. major amastigotes; amphotericin B 0.1 μg/ml, infected cells) | mortality of the cell monolayer (uninfected J774 cells; amphotericin B 1 μg/ml) [%] | percentage of survival compared to untreated control (uninfected J774 cells; uninfected J774 cells, Amphotericin B 1 μg/ml, 48 h) [%] | activation and cytokine expression of J774 cells (J774 cells) | MIC50 reduced relative to PZA (L. major amastigotes; L. major amastigotes within J774 cells) [fold] | MIC50 for PZA analogs (L. major amastigotes; L. major amastigotes within J774 cells (Table Ia)) [μM] |
| --- | --- | --- | --- | --- | --- | --- | --- | --- | --- | --- |
| C[C@@H]1[C@H](O)[C@@H](C)/C=C/C=C/C=C/C=C/C=C/C=C/C=C/[C@H](O[C@@H]2O[C@H](C)[C@@H](O)[C@H](N)[C@@H]2O)C[C@@H]2O[C@](O)(C[C@@H](O)C[C@@H](O)[C@H](O)CC[C@@H](O)C[C@@H](O)CC(=O)O[C@H]1C)C[C@H](O)[C@H]2C(=O)O [Amphotericin B, amphotericin B] | 100 | 0 | 90 | 10 ± 5 | total elimination of parasites | 5 | 95 ± 16 | did not result in activation |  |  |
| NC(=O)c1cnc(F)cn1 [5-Fl PZA] |  |  |  |  |  |  |  |  | 100 | 0.08 |

From patent US20120157396A1, “PYRAZINAMIDE FOR IMMUNOSTIMULATION AND THE TREATMENT OF LEISHMANIASES” (priority 2009, published 2012)
